In BindingDB's records for patent US20250263370 (Tay Therapeutics, 2025):
pIC50: −log10 of the molar value.

Assays:
[1] = molecular target: T1, Bromodomain-containing protein 4 [348-457] (Human, UniProt O60885); test: Biological Activity Primary Activity Assay
T1 construct: 348-457
Method: (§1) 90 μL per well of cell suspension without tracer was also dispensed into at least 3 wells as “No tracer control samples” for background correction. Serially diluted test compounds were prepared at 1000× concentration in DMSO and further diluted to 10× concentration in Opti-MEM. […] Plates were then incubated at 37° C. +5% 002 incubator for 2 hours.

[2] = molecular target: Bromodomain-containing protein 4 [58-164] (Homo sapiens, UniProt O60885); test: Biological Activity Primary Activity Assay
Method: as §1

Row | IC50 [1] | pIC50 [2] | SMILES
1 | in the range around 0.6 µM | < 5.00 | CNC(=O)c1c(OC(C)c2ccc3c(c2)COC3)cc(C(N)=O)n1C (centres undefined) [US20250263370, Example 15]
2 | in the range around 5.5 µM | < 5.00 | CCNC(=O)c1[nH]c(C(=O)NC)c([C@H](C)c2ccccc2F)c1C [US20250263370, Example 74]
